{"source": "patent US20050014789A1", "about": "“Amide derivatives as selective serotonin re-uptake inhibitors” (Pfizer Inc, priority 2003, published 2005)", "type_in_all_cases": "cell-based", "key": {"[1]": {"molecular_target": "T1, dopamine transporter (hDAT) (Homo sapiens, UniProt Q01959)", "T1 construct": "expressed in transfected cells", "T1 sequence (Q01959 whole entry)": "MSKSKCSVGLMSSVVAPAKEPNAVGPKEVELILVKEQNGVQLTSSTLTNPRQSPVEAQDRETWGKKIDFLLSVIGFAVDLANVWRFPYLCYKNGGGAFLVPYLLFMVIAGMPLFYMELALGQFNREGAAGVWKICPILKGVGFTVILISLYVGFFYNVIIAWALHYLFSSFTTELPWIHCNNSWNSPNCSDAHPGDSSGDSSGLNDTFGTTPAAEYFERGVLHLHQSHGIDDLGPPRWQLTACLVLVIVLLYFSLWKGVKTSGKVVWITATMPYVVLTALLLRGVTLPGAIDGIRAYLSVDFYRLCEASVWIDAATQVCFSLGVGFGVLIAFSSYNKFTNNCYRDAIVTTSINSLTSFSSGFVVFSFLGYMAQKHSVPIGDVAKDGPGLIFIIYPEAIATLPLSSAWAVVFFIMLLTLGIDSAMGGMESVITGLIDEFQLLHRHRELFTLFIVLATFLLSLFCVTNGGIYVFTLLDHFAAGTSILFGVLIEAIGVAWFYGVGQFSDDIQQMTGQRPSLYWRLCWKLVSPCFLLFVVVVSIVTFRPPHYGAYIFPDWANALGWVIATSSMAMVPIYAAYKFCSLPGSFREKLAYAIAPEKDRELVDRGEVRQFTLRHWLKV", "experiment": "Inhibition of 3H-dopamine uptake in HEK-293 cells expressing hDAT", "protocol": "(§1) Cells were harvested for the assay to yield a cell suspension of 750,000 cells/ml. […] Assays were carried out in 96-well filter bottom plates. […] All reactions were carried out at room temperature in a shaking incubator. Incubation times were 5 minutes for the hSERT and hDAT assays and 15 minutes for the hNET assay. Reactions were terminated by removal of the reaction mixture using a vacuum manifold followed by rapid washing with ice cold assay buffer. The quantity of ^3H-substrate incorporated into the cells was then quantified. Assay plates were dried in a microwave oven, scintillation fluid added, and radioactivity measured. […] Note: The pH of the buffer was adjusted to 7.40 with 1M NaOH before addition of CaCl2 and pargyline."}, "[2]": {"molecular_target": "T2, noradrenaline transporter (hNET) (Homo sapiens, UniProt P23975)", "T2 construct": "expressed in transfected cells", "T2 sequence (P23975 whole entry)": "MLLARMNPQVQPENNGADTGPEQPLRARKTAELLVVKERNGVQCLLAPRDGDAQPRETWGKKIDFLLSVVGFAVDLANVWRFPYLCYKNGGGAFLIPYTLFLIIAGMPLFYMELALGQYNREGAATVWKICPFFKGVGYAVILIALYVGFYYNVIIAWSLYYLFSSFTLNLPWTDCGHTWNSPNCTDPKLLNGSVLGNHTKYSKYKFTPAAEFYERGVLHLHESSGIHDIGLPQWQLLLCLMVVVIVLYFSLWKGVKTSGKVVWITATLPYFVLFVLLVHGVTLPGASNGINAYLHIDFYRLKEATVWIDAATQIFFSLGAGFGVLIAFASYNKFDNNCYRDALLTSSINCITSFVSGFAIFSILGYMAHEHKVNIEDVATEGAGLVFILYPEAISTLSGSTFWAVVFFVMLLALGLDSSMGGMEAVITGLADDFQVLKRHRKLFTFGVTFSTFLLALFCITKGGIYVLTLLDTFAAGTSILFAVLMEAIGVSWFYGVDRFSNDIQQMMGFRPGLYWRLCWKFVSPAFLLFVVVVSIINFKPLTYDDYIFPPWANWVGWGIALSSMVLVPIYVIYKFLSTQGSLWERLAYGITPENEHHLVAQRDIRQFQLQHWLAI", "experiment": "Inhibition of 3H-noradrenaline uptake in HEK-293 cells expressing hNET", "protocol": "Cells were harvested for the assay to yield a cell suspension of 750,000 cells/ml. All test compounds were dissolved in 100% DMSO and diluted down in assay buffer to give appropriate test concentrations. Assays were carried out in 96-well filter bottom plates. […] All reactions were carried out at room temperature in a shaking incubator. Incubation times were 5 minutes for the hSERT and hDAT assays and 15 minutes for the hNET assay. Reactions were terminated by removal of the reaction mixture using a vacuum manifold followed by rapid washing with ice cold assay buffer. The quantity of ^3H-substrate incorporated into the cells was then quantified. Assay plates were dried in a microwave oven, scintillation fluid added, and radioactivity measured. […] Note: The pH of the buffer was adjusted to 7.40 with 1M NaOH before addition of CaCl2 and pargyline. [table]"}, "[3]": {"molecular_target": "T3, human serotonin transporter (hSERT) (Homo sapiens, UniProt P31645)", "T3 construct": "expressed in transfected cells", "T3 sequence (P31645 whole entry)": "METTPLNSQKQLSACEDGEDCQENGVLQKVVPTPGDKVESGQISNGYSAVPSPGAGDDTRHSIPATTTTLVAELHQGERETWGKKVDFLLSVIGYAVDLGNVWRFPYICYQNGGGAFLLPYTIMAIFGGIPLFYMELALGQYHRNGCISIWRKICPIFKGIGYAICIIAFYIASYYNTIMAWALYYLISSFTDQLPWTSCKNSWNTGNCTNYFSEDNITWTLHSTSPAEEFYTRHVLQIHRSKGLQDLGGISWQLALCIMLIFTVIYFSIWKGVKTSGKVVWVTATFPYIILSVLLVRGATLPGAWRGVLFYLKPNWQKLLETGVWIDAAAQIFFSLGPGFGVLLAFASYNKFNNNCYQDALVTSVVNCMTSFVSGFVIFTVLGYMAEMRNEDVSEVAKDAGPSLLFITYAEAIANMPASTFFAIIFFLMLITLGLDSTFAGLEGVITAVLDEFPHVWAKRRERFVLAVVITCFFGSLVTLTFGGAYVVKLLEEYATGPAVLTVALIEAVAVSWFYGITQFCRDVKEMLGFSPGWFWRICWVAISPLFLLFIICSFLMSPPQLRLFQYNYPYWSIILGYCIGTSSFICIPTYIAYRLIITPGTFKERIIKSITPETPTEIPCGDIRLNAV", "experiment": "Inhibition of 3H-serotonin uptake in HEK-293 cells expressing hSERT", "conditions": "HEK-293 hSERT cells, 3H-5HT 50 nM, 5 min incubation; read-out: serotonin re-uptake inhibition (SRI) IC50", "protocol": "as §1"}}, "data": [{"compound": "CC(C)CN(C(=O)c1ccc2ccccc2c1)[C@@H]1CCNC1.Cl", "note": "[Example 23, N-Isobutyl-N-[(3R)-pyrrolidin-3-yl]-2-naphthamide hydrochloride]", "values": [{"measurement": "IC50", "setting": "[1]; HEK-293 hDAT cells, 3H-Dopamine 200 nM, 5 min incubation, read-out: dopamine re-uptake inhibition IC50", "value": 9490, "unit": "nM"}, {"measurement": "fold more potent (serotonin re-uptake) over dopamine re-uptake", "setting": "[1]; selectivity hSERT vs hDAT", "value": 2018, "unit": "fold"}, {"measurement": "IC50", "setting": "[2]; HEK-293 hNET cells, 3H-Noradrenaline 200 nM, 15 min incubation, read-out: noradrenaline re-uptake inhibition IC50", "value": 1230, "unit": "nM"}, {"measurement": "fold more potent (serotonin re-uptake) over noradrenaline re-uptake", "setting": "[2]; selectivity hSERT vs hNET", "value": 261, "unit": "fold"}, {"measurement": "IC50", "setting": "[3]", "value": 4.7, "unit": "nM"}]}]}
